Results on 3 compounds are retold here after ChEMBL document CHEMBL2203036, “Discovery of 1-[2-(2,4-dimethylphenylsulfanyl)phenyl]piperazine (Lu AA21004): a novel multimodal compound for the treatment of major depressive disorder” (J Med Chem, 2011).

Data set [1] in a line: Oral bioavailability in rat at 2 mg/kg. The class given is ADME, organism-based. As to conditions: in vivo.
In data set [2] the test system is Liver microsomes. Briefly: Intrinsic clearance in human liver microsomes at 1 uM after 60 mins by LC-MS/MS analysis. The data set is classed as ADME, Microsome. The conditions noted are these: 1 h. A general note: Liver microsomes are a subcellular fraction often used to study metabolism.
A further data set concerns the target Cytochrome P450 3A4 (Homo sapiens, UniProt P08684). Briefly: Inhibition of human recombinant CYP3A4 using resorufin benzyl ether after 30 mins by fluorescence spectrophotometric analysis. The class given is ADME.
In the next data set the target is T1, Cytochrome P450 1A2 (Homo sapiens, UniProt P05177).
T1 sequence (P05177 whole entry): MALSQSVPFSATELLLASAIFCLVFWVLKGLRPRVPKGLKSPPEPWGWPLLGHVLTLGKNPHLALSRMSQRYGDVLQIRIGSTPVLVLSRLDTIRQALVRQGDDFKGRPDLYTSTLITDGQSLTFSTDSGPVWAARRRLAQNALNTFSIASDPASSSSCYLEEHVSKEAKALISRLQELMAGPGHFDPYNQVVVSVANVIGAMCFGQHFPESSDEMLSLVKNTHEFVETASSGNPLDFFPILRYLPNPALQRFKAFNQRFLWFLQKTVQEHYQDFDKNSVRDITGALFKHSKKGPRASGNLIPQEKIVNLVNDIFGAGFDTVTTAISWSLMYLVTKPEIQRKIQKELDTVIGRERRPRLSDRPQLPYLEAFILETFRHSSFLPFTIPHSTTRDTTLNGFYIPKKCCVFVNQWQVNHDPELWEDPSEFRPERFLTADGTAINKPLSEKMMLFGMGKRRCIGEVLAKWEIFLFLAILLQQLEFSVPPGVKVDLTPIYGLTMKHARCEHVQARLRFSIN
Briefly: Inhibition of human recombinant CYP1A2 using 7-ethoxy-3-cyanocoumarin after 28 mins by fluorescence spectrophotometric analysis. The class given is ADME.

The species entered for data set [3] is Rattus norvegicus. In words: Selectivity ratio of IC50 for NET to IC50 for SERT in rat synaptosomes. As to conditions: Brain.
Data set [4] has as its target T2, Sodium-dependent dopamine transporter (Rattus norvegicus, UniProt P23977). Briefly: Inhibition of rat DAT.
In data set [5] the target is Sodium-dependent serotonin transporter (Rattus norvegicus, UniProt P31652). In words: Inhibition of SERT-mediated [3H]5HT uptake in rat synaptosomes by scintillation counting. The data set is classed as subcellular, Brain.
Chain of Sodium-dependent serotonin transporter (P31652 whole entry): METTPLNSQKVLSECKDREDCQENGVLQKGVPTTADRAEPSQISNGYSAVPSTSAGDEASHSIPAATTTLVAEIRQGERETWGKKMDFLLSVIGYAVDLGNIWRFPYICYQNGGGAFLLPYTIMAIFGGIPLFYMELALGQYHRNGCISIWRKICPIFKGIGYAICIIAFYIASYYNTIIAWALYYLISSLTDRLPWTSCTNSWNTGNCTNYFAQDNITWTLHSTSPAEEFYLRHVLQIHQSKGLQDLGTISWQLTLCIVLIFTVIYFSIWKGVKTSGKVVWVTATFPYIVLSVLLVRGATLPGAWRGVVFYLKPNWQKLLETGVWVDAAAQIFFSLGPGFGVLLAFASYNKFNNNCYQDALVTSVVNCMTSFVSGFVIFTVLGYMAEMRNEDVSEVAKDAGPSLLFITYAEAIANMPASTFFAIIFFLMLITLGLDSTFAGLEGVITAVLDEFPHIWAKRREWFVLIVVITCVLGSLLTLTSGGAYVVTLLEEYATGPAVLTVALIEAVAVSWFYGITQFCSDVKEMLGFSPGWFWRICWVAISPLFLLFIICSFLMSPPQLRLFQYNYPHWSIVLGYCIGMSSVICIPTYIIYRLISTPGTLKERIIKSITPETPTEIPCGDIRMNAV
The species entered for data set [6] is Rattus norvegicus. In words: Selectivity ratio of IC50 for DAT to IC50 for SERT in rat synaptosomes. As to conditions: Brain.
Data set [7] has as its target T3, 5-hydroxytryptamine receptor 1A (Homo sapiens, UniProt P08908).
T3 sequence (P08908 whole entry): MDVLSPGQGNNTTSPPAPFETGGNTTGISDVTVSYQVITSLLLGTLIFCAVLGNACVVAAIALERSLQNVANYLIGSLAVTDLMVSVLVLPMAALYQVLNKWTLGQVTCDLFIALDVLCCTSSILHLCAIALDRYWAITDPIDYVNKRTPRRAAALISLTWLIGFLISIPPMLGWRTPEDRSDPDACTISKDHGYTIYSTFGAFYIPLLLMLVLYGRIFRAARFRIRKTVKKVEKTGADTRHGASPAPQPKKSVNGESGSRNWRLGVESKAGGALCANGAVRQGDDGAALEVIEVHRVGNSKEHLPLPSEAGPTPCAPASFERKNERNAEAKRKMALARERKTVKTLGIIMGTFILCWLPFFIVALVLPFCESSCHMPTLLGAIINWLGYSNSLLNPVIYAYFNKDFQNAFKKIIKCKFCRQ
In words: biochemical. The data set is classed as cell-based, HEK293.
Description: Displacement of [3H]5-carboxamidotryptamine to human 5HT1A expressed in HEK293 cells by filter binding assay

The species named for data set [8] is Rattus norvegicus. Briefly: Selectivity ratio of IC50 for rat NET to IC50 for SERT in rat synaptosomes. As to conditions: Brain.
A further data set deals with Cytochrome P450 2C9 (Homo sapiens, UniProt P11712). In words: Inhibition of human recombinant CYP2C9 using dibenzylfluorescein after 45 mins by fluorescence spectrophotometric analysis. The data set is classed as ADME.
Chain of Cytochrome P450 2C9 (P11712 whole entry): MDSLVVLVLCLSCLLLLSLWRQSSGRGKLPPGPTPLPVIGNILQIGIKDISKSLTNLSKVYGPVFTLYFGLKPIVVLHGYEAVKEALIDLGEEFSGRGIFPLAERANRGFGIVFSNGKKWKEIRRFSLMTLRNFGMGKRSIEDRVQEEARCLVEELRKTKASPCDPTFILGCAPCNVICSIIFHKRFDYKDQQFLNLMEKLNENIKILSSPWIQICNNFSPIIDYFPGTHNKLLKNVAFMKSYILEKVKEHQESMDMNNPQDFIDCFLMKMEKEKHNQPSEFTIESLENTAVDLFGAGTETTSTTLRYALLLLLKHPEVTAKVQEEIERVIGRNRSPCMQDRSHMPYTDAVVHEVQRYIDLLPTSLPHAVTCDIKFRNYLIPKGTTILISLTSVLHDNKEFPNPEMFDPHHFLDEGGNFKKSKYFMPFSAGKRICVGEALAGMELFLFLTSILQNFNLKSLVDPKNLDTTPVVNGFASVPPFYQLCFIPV
The test system of data set [9] is Liver microsomes. In words: Intrinsic clearance in rat liver microsomes at 1 uM after 60 mins by LC-MS/MS analysis. The data set is classed as ADME, Microsome. The conditions noted are these: 1 h.
Data set [10] can be described thus: Inhibition of rat NET.
For the next data set, the target named is Cytochrome P450 2D6 (Homo sapiens, UniProt P10635). In words: Inhibition of human recombinant CYP2D6 using 3-[2-(N,N-diethyl-N-methylamino)ethyl]-7-methoxy- 4-methylcoumarin after 45 mins by fluorescence spectrophotometric analysis. The data set is classed as ADME.
Chain of Cytochrome P450 2D6 (P10635 whole entry): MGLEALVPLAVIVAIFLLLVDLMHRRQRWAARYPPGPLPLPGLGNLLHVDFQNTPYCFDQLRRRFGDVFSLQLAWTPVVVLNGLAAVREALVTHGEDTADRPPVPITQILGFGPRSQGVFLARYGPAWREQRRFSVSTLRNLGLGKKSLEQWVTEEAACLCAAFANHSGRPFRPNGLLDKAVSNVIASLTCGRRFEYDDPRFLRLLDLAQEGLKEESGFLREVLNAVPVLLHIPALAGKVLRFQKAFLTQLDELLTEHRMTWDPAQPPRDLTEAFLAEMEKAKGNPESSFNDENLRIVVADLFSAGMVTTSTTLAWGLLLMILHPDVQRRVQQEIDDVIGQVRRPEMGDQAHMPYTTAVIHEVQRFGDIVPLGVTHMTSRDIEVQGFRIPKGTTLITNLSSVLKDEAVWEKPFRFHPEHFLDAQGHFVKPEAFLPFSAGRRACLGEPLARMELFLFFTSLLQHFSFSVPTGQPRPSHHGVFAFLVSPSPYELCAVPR
Data set [11] deals with T2, Sodium-dependent dopamine transporter. In words: Inhibition of DAT-mediated [3H]DA in rat synaptosomes by scintillation counting. The data set is classed as subcellular, Brain.
Data set [12] can be described thus: Inhibition of NET-mediated [3H]NE in rat synaptosomes by scintillation counting. The class given is subcellular, Brain.
Data set [13] is filed under the species Rattus norvegicus. Briefly: Selectivity ratio of IC50 for rat DAT to IC50 for SERT in rat synaptosomes. The conditions noted are these: Brain.
Data set [14] has as its system Rattus norvegicus. Briefly: Hepatic clearance in rat at 1 mg/kg, iv. The data set is classed as ADME, organism-based, Liver. Set-up: dose 1 mg/kg, route intravenous. The conditions noted are these: in vivo.
Data set [15] has as its target T4, 5-hydroxytryptamine receptor 3A (Homo sapiens, UniProt P46098).
T4 sequence (P46098 whole entry): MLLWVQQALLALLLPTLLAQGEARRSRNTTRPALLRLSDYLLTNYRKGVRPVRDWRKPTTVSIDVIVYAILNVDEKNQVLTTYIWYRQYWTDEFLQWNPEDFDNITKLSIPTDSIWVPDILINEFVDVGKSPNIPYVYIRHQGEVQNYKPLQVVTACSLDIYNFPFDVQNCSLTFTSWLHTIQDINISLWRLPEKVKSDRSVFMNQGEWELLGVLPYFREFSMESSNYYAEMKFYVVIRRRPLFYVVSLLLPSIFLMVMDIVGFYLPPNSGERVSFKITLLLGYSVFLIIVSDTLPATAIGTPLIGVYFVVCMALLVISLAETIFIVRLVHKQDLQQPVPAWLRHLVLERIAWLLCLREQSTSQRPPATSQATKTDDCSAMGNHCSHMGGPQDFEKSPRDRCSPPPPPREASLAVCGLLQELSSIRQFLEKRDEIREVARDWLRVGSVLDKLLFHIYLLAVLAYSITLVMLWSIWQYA
In words: Displacement of [3H]granisetron from human 5HT3A receptor expressed in HEK293 cells by filter binding assay. The data set is classed as cell-based.

Data set [16] concerns the target 5-hydroxytryptamine receptor 2C (Homo sapiens, UniProt P28335). Briefly: Binding affinity to human 5HT2C receptor.
In data set [17] the target is Alpha-1A adrenergic receptor (Rattus norvegicus, UniProt P43140). In words: Binding affinity to rat alpha1 adrenergic receptor.
Chain of Alpha-1A adrenergic receptor (P43140 whole entry): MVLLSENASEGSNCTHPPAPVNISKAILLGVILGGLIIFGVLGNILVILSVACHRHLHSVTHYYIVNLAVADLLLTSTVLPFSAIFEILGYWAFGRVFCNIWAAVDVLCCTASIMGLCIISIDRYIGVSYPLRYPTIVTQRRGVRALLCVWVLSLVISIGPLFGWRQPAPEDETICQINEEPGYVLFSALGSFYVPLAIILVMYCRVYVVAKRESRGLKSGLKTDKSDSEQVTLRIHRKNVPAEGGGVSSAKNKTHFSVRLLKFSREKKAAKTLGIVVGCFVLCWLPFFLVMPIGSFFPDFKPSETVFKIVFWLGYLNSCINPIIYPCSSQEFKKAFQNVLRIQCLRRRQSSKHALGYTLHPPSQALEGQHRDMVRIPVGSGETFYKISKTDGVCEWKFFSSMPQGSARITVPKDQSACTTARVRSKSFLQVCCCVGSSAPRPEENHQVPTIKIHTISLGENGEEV
The test system of data set [18] is Rattus norvegicus. Briefly: Antidepression activity in sc dosed Harlan rat assessed as increase in extracellular 5HT level in ventral hippocampus region measured up to 180 mins by microdialysis method relative to vehicle-treated control. The class given is functional.

T2 sequence (P23977 whole entry): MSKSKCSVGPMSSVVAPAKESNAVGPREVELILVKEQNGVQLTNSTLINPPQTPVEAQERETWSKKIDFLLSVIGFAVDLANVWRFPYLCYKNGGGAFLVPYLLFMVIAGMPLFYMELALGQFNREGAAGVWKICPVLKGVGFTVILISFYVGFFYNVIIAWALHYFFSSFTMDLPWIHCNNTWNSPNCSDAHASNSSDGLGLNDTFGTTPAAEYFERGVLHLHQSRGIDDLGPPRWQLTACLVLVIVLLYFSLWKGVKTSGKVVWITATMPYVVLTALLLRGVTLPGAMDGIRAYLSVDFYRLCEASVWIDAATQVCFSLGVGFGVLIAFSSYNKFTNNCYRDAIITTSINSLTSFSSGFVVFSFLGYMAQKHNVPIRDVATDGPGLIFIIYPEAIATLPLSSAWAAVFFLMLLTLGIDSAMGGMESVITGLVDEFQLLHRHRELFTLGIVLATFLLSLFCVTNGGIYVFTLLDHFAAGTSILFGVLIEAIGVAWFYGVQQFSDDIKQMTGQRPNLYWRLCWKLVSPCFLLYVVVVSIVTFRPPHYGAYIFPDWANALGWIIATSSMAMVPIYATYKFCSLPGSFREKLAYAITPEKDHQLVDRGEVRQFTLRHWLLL
Chain of Cytochrome P450 3A4 (P08684 whole entry): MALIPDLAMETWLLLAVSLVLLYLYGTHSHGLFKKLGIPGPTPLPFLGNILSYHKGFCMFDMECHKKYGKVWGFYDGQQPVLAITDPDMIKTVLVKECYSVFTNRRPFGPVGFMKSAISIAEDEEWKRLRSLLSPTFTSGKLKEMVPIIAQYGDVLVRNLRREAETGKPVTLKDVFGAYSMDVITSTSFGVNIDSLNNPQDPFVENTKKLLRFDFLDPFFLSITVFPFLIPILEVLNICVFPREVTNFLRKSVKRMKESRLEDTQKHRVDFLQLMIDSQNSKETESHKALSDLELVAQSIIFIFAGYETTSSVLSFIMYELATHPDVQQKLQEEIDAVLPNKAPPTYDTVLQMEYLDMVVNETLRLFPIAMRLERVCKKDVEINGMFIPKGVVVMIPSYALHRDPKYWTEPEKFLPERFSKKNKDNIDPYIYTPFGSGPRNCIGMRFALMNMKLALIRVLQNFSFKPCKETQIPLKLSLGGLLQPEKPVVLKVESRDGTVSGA
Chain of 5-hydroxytryptamine receptor 2C (P28335 whole entry): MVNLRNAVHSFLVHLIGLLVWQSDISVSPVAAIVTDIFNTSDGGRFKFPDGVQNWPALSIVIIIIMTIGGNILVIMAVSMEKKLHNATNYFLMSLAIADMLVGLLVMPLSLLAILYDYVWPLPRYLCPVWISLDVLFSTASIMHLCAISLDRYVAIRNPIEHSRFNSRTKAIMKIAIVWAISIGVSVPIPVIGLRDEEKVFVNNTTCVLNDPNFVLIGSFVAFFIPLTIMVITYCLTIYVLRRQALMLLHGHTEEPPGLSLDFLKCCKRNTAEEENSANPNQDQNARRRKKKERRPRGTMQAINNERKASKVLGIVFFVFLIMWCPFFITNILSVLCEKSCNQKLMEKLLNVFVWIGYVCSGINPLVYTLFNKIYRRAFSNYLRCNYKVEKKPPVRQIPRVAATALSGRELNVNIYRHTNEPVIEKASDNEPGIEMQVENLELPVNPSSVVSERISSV

As a reminder, the bioavailability is the share of a dose that reaches the circulation, judged against a reference dose that is usually intravenous. A higher bioavailability goes with much systemic uptake. Usually IC50 stands for the concentration that inhibits the measured activity by half. What is called Ki is the dissociation constant of the complex between target and ligand, obtained from inhibition or displacement. Low readings indicate a stronger hold on the target, high ones a looser hold on the target. On to `Cl.Clc1ccc(Sc2ccccc2N2CCNCC2)cc1`, for which the bioavailability in data set [1] worked out at 26%. Also, the values for the CLH with Liver microsomes [2], in the data set with Liver microsomes [9] and in the data set with Rattus norvegicus [14] were 0.6 L/min, 70 mL/min and 96.7 mL/min/kg, respectively. In addition, the IC50 on Cytochrome P450 3A4 is 6.8 µM; on Cytochrome P450 1A2, 53 µM; in [4] it was 0.045 µM; in data set [5], 0.013 µM; on Cytochrome P450 2C9 it was 31 µM; in data set [10], 0.19 µM. Moreover, the IC50 on Cytochrome P450 2D6 worked out at 0.4 µM; in data set [11], 0.037 µM; in data set [12] it was 0.16 µM. Moreover, the Ratio IC50 is 12 in the data set filed under Rattus norvegicus [3], 2.8 in the data set listed under Rattus norvegicus [6], 15 in the data set listed under Rattus norvegicus [8] and 3.5 in the data set listed under Rattus norvegicus [13]. Besides, the results for the Ki in [7] and in data set [15] were 0.069 µM and 0.036 µM, respectively.

Regarding `COc1ccc(Sc2ccc(C)cc2N2CCNCC2)cc1`, the Ki was < 0.1 µM in [16], < 0.1 µM in data set [17], 4 µM in data set [7] and 0.19 µM in [15]. The compound also returned an IC50 in data set [5] of 0.0079 µM.

For the compound `CN(C)CCC[C@@]1(c2ccc(F)cc2)OCc2cc(C#N)ccc21` [ESCITALOPRAM], the Activity with Rattus norvegicus [18] was found to be 700%.
